pEC50, pIC50: −log10 of the molar value.
Tests used:
human GHS receptor [1] = biological target: T1, human GHS receptor (Homo sapiens, UniProt Q92847); experiment: h bind IC50 (binding assay, Table 1); details: human receptor; Table 1
human GHS receptor [2] = biological target: T1, human GHS receptor; experiment: Ghrelin IP1 agonist assay (IP1 HTRF); format: cell-based; design: expressed in transfected cells; host or cells: HEK293s; details: for Emax: 2 h, agonist effect as % maximal effect of GHRP-6 (5 μM), read-out: h IP1 ag %; for pEC50: HEK293s cells stably expressing human GHS receptor, 2 hours at 37° C., read-out: h IP1 ag EC50
Procedure, shortened: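 Cells: HEK293s stably expressing human GHS receptor, in stimulation buffer containing 0.02% fatty acid free BSA.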

T1 sequence (Q92847 whole entry): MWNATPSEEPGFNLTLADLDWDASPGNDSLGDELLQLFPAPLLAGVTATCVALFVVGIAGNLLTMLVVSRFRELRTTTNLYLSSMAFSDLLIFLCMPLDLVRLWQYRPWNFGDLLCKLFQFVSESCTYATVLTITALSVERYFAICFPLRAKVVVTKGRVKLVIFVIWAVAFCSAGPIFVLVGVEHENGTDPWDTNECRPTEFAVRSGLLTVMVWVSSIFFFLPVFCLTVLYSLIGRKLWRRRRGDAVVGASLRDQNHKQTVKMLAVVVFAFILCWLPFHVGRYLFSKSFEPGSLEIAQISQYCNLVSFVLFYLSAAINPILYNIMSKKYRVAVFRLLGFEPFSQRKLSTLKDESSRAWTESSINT

Row | SMILES | pIC50 (human GHS receptor [1]) | Emax (human GHS receptor [2]) [%] | pEC50 (human GHS receptor [2])
1 | CC(C)(C)OC(=O)N1CCC(Oc2ccc(Cl)c(C(=O)NC(=O)Nc3nc4ccc(S(C)(=O)=O)cc4s3)c2)C1 (centres unmarked) [Example 248, tert-butyl 3-(4-chloro-3-(6-(methylsulfonyl)benzo[d]thiazol-2-ylcarbamoyl-carbamoyl)phenoxy) pyrrolidine-1-carboxylate] | 7.23 | 3.07 | 6.46
2 | CS(=O)(=O)c1ccc2nc(NC(=O)NC(=O)c3cc(OC4CCNC4)ccc3Cl)sc2c1 (centres unmarked) [Example 249, 2-chloro-N-(6-(methylsulfonyl)benzo[d]thiazol-2-ylcarbamoyl) 5-(pyrrolidin-3-yloxy)benzamide] | 5.09 | 3.13 | 5.31
3 | CN1CCC(Oc2ccc(Cl)c(C(=O)NC(=O)Nc3nc4ccc(S(C)(=O)=O)cc4s3)c2)C1 (centres unmarked) [Example 250, 2-chloro-5-(1-methylpyrrolidin-3-yloxy)-N-(6-(methylsulfonyl)benzo[d]thiazol-2-ylcarbamoyl) benzamide] | 5.42 | 6.82 | 5.29
4 | CN(C)c1cccc(-c2ccc(Cl)c(C(=O)NC(=O)Nc3nc4ccc(S(C)(=O)=O)cc4s3)c2)n1 [Example 251, 2-chloro-5-(6-(dirnethylamino)pyridin-2-yl)-N-(6-(methylsulfonyl)benzo[d]thiazol-2-ylcarbamoyl) benzamide] | 7.46 | 0 | ≤ 4.70
5 | CC(C)(C)OC(=O)N1CC(Oc2ccc(Cl)c(C(=O)NC(=O)Nc3nc4ccc(S(C)(=O)=O)cc4s3)c2)C1 [Example 252, tert-buty 3-(4-chloro-3-(6-(methylsulfonyl)benzo[d]thiazol-2-ylcarbamoyl-carbamoyl)phenoxy)azetidine-1-carboxylate] | 7.73 | 1 | 7.56
6 | CS(=O)(=O)c1ccc2nc(NC(=O)NC(=O)c3cc(OC4CNC4)ccc3Cl)sc2c1 [Example 253, 5-(azetidin-3-yloxy)-2-chloro-N-(6-(methylsulfonyl)benzo[d]thiazol-2-ylcarbamoyl) benzamide] | 5.12 | 5.84 | 5.30
7 | CN1CCC(S(=O)(=O)c2ccc3nc(NC(=O)NC(=O)c4cc(-n5cccn5)c(F)cc4Cl)sc3c2)CC1 [Example 254, 2-chloro-4-fluoro-N-(6-(1-methylpiperidin-4-ylsulfonyl)benzo [d]thiazol-2-ylcarbamoyl)-5-(1H-pyrazol-1-yl)benzamide] | 8.24 | 0 | ≤ 4.70
8 | COc1cc(Cl)c(C(=O)NC(=O)Nc2nc3ccc(S(=O)(=O)C4CCN(C)CC4)cc3s2)cc1N1CCOCC1 [Example 255, 2-chloro-4-methoxy-N-(6-(1-methylpiperidin-4-ylsulfonyl)benzo [d]thiazol-2-ylcarbamoyl)-5-morpholino-benzamide] | 8.10 | 80.9 | ≤ 4.70
9 | CCOc1cc(C(=O)NC(=O)Nc2nc3ccc(S(=O)(=O)C4CCN(C)CC4)cc3s2)c(Cl)cc1OC [Example 256, 2-chloro-5-ethoxy-4-methoxy-N-(6-(1-methylpiperidin-4-ylsulfonyl)benzo [d]thiazol-2-ylcarbamoyl) benzamide] | 7.23 | 0 | ≤ 4.70
10 | CN1CC(Oc2ccc(Cl)c(C(=O)NC(=O)Nc3nc4ccc(S(C)(=O)=O)cc4s3)c2)C1 [Example 257, 2-chloro-5-(1-methylazetidin-3-yloxy)-N-(6-(methylsulfonyl)benzo[d]thiazol-2-ylcarbamoyl) benzamide] | 6.07 | 13.1 | ≤ 4.70
11 | CN1CCC(S(=O)(=O)c2ccc3nc(NC(=O)NC(=O)c4cc(N5CCOCC5)c(Cl)cc4Cl)sc3c2)CC1 [Example 258, 2,4-dichloro-N-(6-(1-methylpiperidin-4-ylsulfonyl)benzo[d]thiazol-2-ylcarbamoyl)-5-morpholino-benzamide] | 7.98 | 2.45 | 5.48
12 | CN1CCC(S(=O)(=O)c2ccc3nc(NC(=O)NC(=O)c4cc(-n5cccn5)c(Cl)cc4Cl)sc3c2)CC1 [Example 259, 2,4-dichloro-N-(6-(1-methylpiperidin-4-ylsulfonyl)benzo [d]thiazol-2-ylcarbamoyl)-5-(1H-pyrazol-1-yl)benzamide] | 8.30 | 0.653 | ≤ 4.70
13 | Cc1cc(Cl)c(C(=O)NC(=O)Nc2nc3ccc(S(=O)(=O)C4CCN(C)CC4)cc3s2)cc1-n1cccn1 [Example 260, 2-chloro-4-methyl-N-(6-(1-methylpiperidin-4-ylsulfonyl)benzo [d]thiazol-2-ylcarbamoyl)-5-(1H-pyrazol-1-yl)benzamide] | 8.24 | 1.52 | 5.03
14 | CCOc1cc(Cl)c(C(=O)NC(=O)Nc2nc3ccc(S(=O)(=O)C4CCN(C)CC4)cc3s2)cc1-n1cccn1 [Example 261, 2-chloro-4-ethoxy-N-(6-(1-methylpiperidin-4-ylsulfonyl)benzo [d]thiazol-2-ylcarbamoyl)-5-(1H-pyrazol-1-yl)benzamide] | 9.03 | 0 | ≤ 4.70
15 | COc1cc(Cl)c(C(=O)NC(=O)Nc2nc3ccc(S(=O)(=O)C4CCN(C(=O)OC(C)(C)C)CC4)cc3s2)cc1-n1cccn1 [Example 262, tert-butyl4-(2-(3-(2-chloro-4-methoxy-5-(1H-pyrazol-1-yl)benzoyl)ureido)benzo[d]thiazol-6-ylsulfonyl) piperidine-1-carboxylate] | 7.46 | 0 | ≤ 4.70
16 | COc1cc(Cl)c(C(=O)NC(=O)Nc2nc3ccc(S(=O)(=O)C4CCN(C)CC4)cc3s2)cc1-n1cccn1 [Example 264, 2-chloro-4-methoxy-N-(6-(1-methylpiperidin-4-ylsulfonyl)benzo [d]thiazol-2-ylcarbamoyl) 5-(1H-pyrazol-1-yl)benzamide] | 8.35 | 0 | ≤ 4.70
17 | COc1cc(Cl)c(C(=O)NC(=O)Nc2nc3ccc(S(=O)(=O)C4CCN(C)CC4)cc3s2)cc1-n1nccc1C [Example 265, 2-chloro-4-methoxy-5-(5-methyl-1H-pyrazol-1-yl)-N-(6-(1-methylpiperidin-4-ylsulfonyl)benzo [d]thiazol-2-ylcarbamoyl) benzamide] | 7.53 | 0 | –
18 | CN(C)Cc1ccc(Cl)c(C(=O)NC(=O)Nc2nc3ccc(S(C)(=O)=O)cc3s2)c1 [Example 266, 2-chloro-5-((dimethylamino)methyl)-N-(6-(methylsulfonyl)benzo[d]thiazol-2-ylcarbamoyl) benzamide] | 5.31 | 6 | ≤ 4.70
19 | CN(C)C1CCCN(c2ccc(Cl)c(C(=O)NC(=O)Nc3nc4ccc(S(C)(=O)=O)cc4s3)c2)C1 (centres unmarked) [Example 268, 2-Chloro-5-(3-dimethylamino-1-piperidyl)-N-[(6-methylsulfonyl-1,3-benzothiazol-2-yl)carbamoyl]benzamide] | 6.02 | 11.3 | 5.14

Reference: US20120115845A1, “THERAPEUTIC AGENTS” (priority 2007, published 2012)
